Results as given in article PMC7544095, “Human ABCB1 with an ABCB11-like degenerate nucleotide binding site maintains transport activity by avoiding nucleotide occlusion” (PLoS Genetics, 2020).
Where two headings read alike, the source gives them in different places. Values belong to the molecule of their own block, whether it stands above or below them.

Experiments:
[1] = biological target: T1, ABCB1 E556M (catalytic glutamate mutant) (Homo sapiens, UniProt P08183, E556M); experiment: Hoechst 33342 and calcein-AM accumulation assay in NIH 3T3 cells (transport activity factor); assay type: cell-based
T1 construct: expressed in transfected cells
Method: (§1) For measurement of the transport activity of the mutant ABCB1 variants a cell based Hoechst 33342 and calcein-AM accumulation assay was used. Cells (5 × 10^5 ml^-1) in gl-HEPES (20 mM HEPES, 123 mM NaCl, 5 mM KCl, 1.5 mM MgCl2, 1 mM CaCl2, 7 mM glucose) for Hoechst 33342 assay or in gl-PBS for calcein-AM assay were pre-incubated in the presence or absence of specific ABCB1 inhibitor (tariquidar (1 μM)) for 10 min at 37°C and then were loaded with different concentrations of Hoechst 33342 (5.0, 1.0, 0.5, 0.1 and 0.025 μM) and calcein-AM (0.5, 0.25, 0.1, 0.05 and 0.025 μM) for 30 min. The samples were washed with ice-cold HEPES or PBS buffer containing 0.5% FBS at 300 × g for 5 min and were kept on ice until flow cytometric measurement. Dead cells were excluded from the analysis on the basis of PI staining. The transport activity of the ABCB1 variants was described by the Transport Activity Factor (TAF) calculated according to the following formula: TAF = (MFinh−MFI0)/MFIinh, wherein MFIinh and MFI0 are the mean fluorescence intensity values measured in the presence and absence of ABCB1 inhibitor, respectively.
(§2) Intracellular Hoechst 33342 and calcein accumulation was measured using a Becton Dickinson FACSAria III Cell Sorter (Becton Dickinson, Mountain View, CA, USA). Hoechst 33342 was excited with a 365 nm UV laser and the emitted blue light was detected using a 445/40 band pass filter. Calcein was excited with a 488 nm blue laser and fluorescence was detected using a 502 long pass dichroic mirror and a 530/20 band pass filter. PI was excited by the 562 nm line of a solid-state laser and the emitted light was detected applying a 590 nm dichroic mirror and a 595/50 nm band-pass filter.

wild-type ABCB1 [2] = biological target: T2, wild-type ABCB1 (Homo sapiens, UniProt P08183); experiment: as above; assay type: cell-based; settings: wild-type ABCB1 expressing cells, 30 min, 37°C
T2 construct: expressed in transfected cells
Method: as §1, §2

[3] = biological target: T3, ABCB1 quadruple mutant (S474E, E556M, G1178R, Q1180E) (Homo sapiens, UniProt P08183, E556M/G1178R/Q1180E/S474E); experiment: as above; assay type: cell-based
T3 construct: expressed in transfected cells
Method: as §1, §2

[4] = biological target: T1, ABCB1 E556M (catalytic glutamate mutant); experiment: MgATP dependent UIC2 binding in permeabilized NIH 3T3 cells (apparent nucleotide affinity); assay type: cell-based
Method: (§3) NIH 3T3 cells (1 × 10^7 cells/ml) were treated with 300 U/ml streptolysin O (SLO, Sigma-Aldrich, Budapest) in the presence of 10 mM DL-Dithiothreitol (DTT), protease inhibitor cocktail (Sigma-Aldrich, Budapest, Hungary) and 100 μg/ml phenylmethanesulfonyl fluoride (PMSF) in phosphate-buffered saline (PBS) containing 1% fetal bovine serum (FBS-PBS) at 37°C for 30 min, allowing permeabilization of approximately 60–80% of the cells (judged by propidium iodide (PI) staining). The reaction was stopped with 10 ml ice-cold FBS-PBS and the cells were centrifuged for 5 min at 525 × g at 4°C. Unbound toxin was removed by washing the cells 3 times with FBS-PBS and the cell pellet was re-suspended in FBS-PBS.
(§4) Apparent affinity of nucleotide binding (KA) was determined as it is described in Barsony et al.. Briefly, MgATP was added in a broad concentration range to permeabilized cells (1 × 10^6 cells/ml) in the presence or absence of 0.5 mM vanadate (Vi) for 30 min at 37°C. Then the samples (without washing) were further incubated with 10 μg/ml UIC2-A647 mAb for another 30 min at 37°C. Following antibody labeling, samples were washed 3 times with ice-cold FBS-PBS and re-suspended in ice-cold FBS-PBS containing 3 μg/ml PI. The UIC2-A647 fluorescence intensity of the PI positive cells was measured by flow cytometry and plotted as a function of the nucleotide concentration. To determine the apparent affinity of ABCB1 to the nucleotides (KA) data points were fitted with the four-parameter Hill function, where Fmin and Fmax values are the minimum and maximum fluorescence intensities.

wild-type ABCB1 [5] = biological target: T2, wild-type ABCB1; experiment: as above; assay type: cell-based
Method: as §3, §4

[6] = biological target: T3, ABCB1 quadruple mutant (S474E, E556M, G1178R, Q1180E); experiment: as above; assay type: cell-based
Method: as §3, §4

ABCB1 = system: ABCB1; design: method as in PMID 11121420; settings: reported values; read-out: KM for ATP hydrolysis; cited from earlier work

T3 sequence (P08183 whole entry S474E/E556M/G1178R/Q1180E): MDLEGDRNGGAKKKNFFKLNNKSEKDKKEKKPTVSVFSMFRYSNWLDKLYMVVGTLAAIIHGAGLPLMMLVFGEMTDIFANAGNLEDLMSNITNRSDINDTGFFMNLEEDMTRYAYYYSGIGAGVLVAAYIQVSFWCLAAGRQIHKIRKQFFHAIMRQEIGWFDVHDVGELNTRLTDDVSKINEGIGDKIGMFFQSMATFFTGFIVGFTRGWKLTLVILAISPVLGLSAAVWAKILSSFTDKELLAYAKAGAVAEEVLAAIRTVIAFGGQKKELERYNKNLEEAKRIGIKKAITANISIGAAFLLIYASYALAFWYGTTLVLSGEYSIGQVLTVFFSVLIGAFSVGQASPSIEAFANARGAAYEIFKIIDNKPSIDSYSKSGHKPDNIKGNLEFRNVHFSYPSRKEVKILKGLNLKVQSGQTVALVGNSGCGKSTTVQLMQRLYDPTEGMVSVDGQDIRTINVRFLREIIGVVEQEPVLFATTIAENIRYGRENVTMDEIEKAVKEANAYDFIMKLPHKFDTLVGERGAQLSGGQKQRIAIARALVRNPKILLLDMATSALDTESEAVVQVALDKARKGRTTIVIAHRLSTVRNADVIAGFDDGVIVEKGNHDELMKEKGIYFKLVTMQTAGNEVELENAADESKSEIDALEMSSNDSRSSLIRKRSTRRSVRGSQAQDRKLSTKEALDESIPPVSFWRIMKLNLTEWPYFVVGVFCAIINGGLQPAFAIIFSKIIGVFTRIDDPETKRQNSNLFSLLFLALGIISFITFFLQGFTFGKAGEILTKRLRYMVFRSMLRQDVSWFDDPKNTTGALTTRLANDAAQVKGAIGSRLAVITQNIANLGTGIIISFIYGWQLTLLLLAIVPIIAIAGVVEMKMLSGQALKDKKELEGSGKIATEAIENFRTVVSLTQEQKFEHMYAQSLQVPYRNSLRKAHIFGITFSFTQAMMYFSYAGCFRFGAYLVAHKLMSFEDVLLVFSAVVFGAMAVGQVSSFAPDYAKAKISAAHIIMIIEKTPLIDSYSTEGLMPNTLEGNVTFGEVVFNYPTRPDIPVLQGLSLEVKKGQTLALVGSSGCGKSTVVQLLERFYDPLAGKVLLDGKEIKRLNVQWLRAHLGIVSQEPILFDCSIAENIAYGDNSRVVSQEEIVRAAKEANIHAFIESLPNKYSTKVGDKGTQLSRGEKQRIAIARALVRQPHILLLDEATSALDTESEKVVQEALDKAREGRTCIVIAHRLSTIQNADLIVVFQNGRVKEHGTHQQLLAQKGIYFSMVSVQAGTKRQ
T1 sequence (P08183 whole entry E556M): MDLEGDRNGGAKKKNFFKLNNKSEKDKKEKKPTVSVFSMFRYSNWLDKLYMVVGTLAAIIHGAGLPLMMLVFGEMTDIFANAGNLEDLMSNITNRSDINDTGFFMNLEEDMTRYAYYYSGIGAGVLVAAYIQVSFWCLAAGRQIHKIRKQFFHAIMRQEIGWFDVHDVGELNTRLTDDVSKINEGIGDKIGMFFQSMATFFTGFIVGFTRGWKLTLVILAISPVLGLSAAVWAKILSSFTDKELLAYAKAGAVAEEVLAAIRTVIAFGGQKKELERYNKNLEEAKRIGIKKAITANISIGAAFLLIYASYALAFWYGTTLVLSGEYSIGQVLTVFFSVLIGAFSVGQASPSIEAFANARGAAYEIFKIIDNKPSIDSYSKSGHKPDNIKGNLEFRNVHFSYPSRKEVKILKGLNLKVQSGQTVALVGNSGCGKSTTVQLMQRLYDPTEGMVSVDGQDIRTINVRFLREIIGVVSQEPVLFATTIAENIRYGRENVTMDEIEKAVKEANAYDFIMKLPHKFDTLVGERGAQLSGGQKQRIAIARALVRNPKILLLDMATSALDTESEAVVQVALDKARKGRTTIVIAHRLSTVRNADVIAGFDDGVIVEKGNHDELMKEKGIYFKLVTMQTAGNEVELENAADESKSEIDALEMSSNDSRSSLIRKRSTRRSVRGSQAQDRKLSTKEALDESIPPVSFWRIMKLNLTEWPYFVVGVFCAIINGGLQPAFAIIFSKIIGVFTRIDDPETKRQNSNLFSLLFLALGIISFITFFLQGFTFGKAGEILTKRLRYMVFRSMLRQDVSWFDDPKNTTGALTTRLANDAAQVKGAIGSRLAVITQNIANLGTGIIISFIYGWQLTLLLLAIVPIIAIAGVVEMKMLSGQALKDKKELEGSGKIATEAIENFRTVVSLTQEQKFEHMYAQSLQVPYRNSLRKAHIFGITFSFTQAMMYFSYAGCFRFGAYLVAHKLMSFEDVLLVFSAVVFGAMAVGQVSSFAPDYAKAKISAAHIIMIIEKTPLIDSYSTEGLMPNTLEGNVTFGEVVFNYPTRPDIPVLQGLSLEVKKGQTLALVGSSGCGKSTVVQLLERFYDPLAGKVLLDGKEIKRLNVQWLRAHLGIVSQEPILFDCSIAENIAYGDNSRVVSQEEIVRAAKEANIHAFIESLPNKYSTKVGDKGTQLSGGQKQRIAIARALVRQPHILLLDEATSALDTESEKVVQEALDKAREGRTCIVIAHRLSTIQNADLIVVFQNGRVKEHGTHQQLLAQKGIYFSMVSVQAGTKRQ
T2 sequence (P08183 whole entry): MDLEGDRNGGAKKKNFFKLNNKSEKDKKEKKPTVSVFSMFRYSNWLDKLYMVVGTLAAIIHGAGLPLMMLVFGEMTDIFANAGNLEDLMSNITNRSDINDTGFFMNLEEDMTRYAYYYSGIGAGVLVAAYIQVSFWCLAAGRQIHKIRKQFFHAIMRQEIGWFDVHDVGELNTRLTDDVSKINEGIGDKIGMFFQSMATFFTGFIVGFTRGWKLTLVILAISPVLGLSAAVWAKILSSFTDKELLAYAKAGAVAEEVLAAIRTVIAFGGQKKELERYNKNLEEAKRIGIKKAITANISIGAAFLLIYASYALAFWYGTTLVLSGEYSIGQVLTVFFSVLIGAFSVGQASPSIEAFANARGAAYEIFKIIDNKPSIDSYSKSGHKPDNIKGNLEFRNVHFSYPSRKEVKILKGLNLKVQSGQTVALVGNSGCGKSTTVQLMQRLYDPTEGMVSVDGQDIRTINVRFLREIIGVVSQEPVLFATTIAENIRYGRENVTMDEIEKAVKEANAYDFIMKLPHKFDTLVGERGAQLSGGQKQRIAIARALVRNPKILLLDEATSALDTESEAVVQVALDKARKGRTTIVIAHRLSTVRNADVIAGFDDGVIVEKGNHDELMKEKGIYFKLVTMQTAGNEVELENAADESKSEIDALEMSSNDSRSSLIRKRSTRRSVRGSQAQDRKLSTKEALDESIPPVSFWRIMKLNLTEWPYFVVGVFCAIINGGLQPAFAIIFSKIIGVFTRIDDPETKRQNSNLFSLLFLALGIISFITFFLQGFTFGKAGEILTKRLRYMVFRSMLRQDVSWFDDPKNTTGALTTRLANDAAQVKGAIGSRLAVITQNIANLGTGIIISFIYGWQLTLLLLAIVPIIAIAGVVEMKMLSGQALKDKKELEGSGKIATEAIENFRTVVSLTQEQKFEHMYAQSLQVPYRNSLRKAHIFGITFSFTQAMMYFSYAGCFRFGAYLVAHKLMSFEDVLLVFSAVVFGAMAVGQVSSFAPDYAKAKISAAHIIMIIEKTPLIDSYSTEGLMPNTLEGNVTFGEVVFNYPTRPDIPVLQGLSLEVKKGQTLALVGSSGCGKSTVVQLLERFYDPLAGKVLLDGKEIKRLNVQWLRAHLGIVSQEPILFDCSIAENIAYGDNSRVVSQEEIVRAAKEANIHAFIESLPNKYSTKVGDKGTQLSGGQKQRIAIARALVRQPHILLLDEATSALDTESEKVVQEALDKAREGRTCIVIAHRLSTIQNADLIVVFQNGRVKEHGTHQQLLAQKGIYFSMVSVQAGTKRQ

Structure (SMILES): CCOc1ccc(-c2nc3ccc(-c4nc5ccc(N6CCN(C)CC6)cc5[nH]4)cc3[nH]2)cc1 [Hoechst 33342]
transport activity ([1]; E556M expressing cells): abolished transport activity
intracellular accumulation / efflux by ABCB1 (wild-type ABCB1 [2]): effectively prevented intracellular accumulation
intracellular accumulation / efflux by ABCB1 ([3]; quadruple mutant expressing cells): able to limit
difference in transport activity factor between wild type and quadruple mutant ([3]; wild type vs quadruple mutant): two-fold difference

Structure (SMILES): Nc1ncnc2c1ncn2[C@@H]1O[C@H](COP(=O)(O)OP(=O)([O-])OP(=O)([O-])O)[C@@H](O)[C@H]1O.[Mg+2] [MgATP]
apparent affinity of ATP (KA) ([4]; absence of Vi): 0.077 ± 0.02 mM
apparent affinity of ATP (KA) with Vi ([4]; treatment with 0.5 mM Vi): 0.027 ± 0.001 mM
apparent affinity (KA) lower than reported KM (wild-type ABCB1 [5]; wild-type ABCB1, KA vs reported KM): 3–4 fold
apparent affinity of MgATP (KA) (wild-type ABCB1 [5]; wild-type ABCB1, absence of vanadate, UIC2 binding readout, 37°C): 1.56 ± 0.46 mM
apparent affinity for MgATP/Vi (KA) ([6]; 0.5 mM Vi): 0.038 ± 0.001 mM
apparent affinity for MgATP (KA) ([6]; absence of Vi): 1.12 ± 0.6 mM
Km (ABCB1): 300 to 500 µM

transport activity [1]: abolished transport activity
difference in transport activity factor between wild type and quadruple mutant [3]: two-fold difference
intracellular accumulation / efflux by ABCB1 [3]: able to limit
Structure (SMILES): O=C(O)CN(CC(=O)O)Cc1cc2c(cc1O)Oc1cc(O)c(CN(CC(=O)O)CC(=O)O)cc1C21OC(=O)c2ccccc21 [calcein]
